Laboratory results as given in patent EP3298025B1, “NEW AMINO ACID SEQUENCES WITH MI[…] DERIVED FROM NAJA ATRA CARDIOTOXIN 1 (CTX-1)” (Università degli Studi di Parma, priority 2015, dated 2016).
Residues, ends and D or L forms follow the SMILES beside them.

Tests used:
[1] = test system: epithelial MDBK cells (Madin Darby Bovine Kidney); experiment: cytotoxicity against eukaryotic cells, Trypan Blue; type: cell-based; settings: overnight incubation
Procedure: Peptides cytotoxicity against epithelial MDBK cells (Madin Darby Bovine Kidney) was determined using cell cultures of about 5x10^5 cells/ml with and without peptides, with overnight incubation at 37°C with CO2. The negative control was in medium without peptide; positive control was in medium with 0.2% of Triton x100, to completely lyse cells. Cells vitality was assessed adding every well with 20 µl of Trypan Blue, incubating other 5 minutes at 37°C. MCC10 was the minimal peptide concentration with 10% of cytotoxicity.

[2] = test system: Gram-negative tested bacteria; experiment: micro-dilution and transplant on agar, summary over Gram-negative panel; type: cell-based; settings: almost all Gram-negative tested bacteria
Procedure: For each bacterial strain 3-5 morphologically similar colonies from fresh cultures were taken and inoculated in Brain Heart Infusion broth, then incubated at 37°C in agitation at 225 r.p.m. for about 3-4 hours. Then the bacterial suspension was centrifuged at 1000 G for 20 minutes and the pellet resuspended in phosphate buffer pH 7, 10 mM. The turbidity of the bacterial suspension was measured using a spectrophotometer with absorbance of 600 nm; the range 0.08-0.13 equates to about 10^8 cfu/ml. The bacterial suspension was diluted 1:100 in phosphate buffer 10mM to obtain a bacterial concentration of about 10^6 cfu/ml. Within 30 minutes 50 µl of the suspension (10^6 cfu/ml) were inoculated in each well of the microtiter plate, to obtain a bacterial concentration of about 5x10^5 cfu/ml.
The peptides ability to inhibit the bacterial growth in liquid cultures was tested. 50 µl of each peptides solutions of about 0,2-50 µM were added in microtiter plates with 96 wells with U-shaped bottom, containing the liquid culture medium and one of these bacterial strains: E coli ATCC 25922, Pseudomonas. […]
The bacterial suspension and peptides were put in contact for 2 hours at 37°C, with differing concentrations of the peptide. […] After an incubation time of 24 hours at 37°C, the bacterial colonies (cfu) were counted.

Structure (SMILES): CC[C@H](C)[C@H](NC(=O)[C@H](CCCCN)NC(=O)[C@H](Cc1ccc(O)cc1)NC(=O)[C@H](CS)NC(=O)[C@H](CC(C)C)NC(=O)[C@H](CC(N)=O)NC(=O)[C@H](CCCCN)NC(=O)CNC(=O)[C@H](C)NC(=O)[C@@H]1CCCN1C(=O)[C@H](CS)NC(=O)[C@@H](NC(=O)[C@H](CCCCN)NC(=O)[C@H](CO)NC(=O)[C@H](C)NC(=O)[C@@H](NC(=O)[C@@H]1CCCN1C(=O)[C@@H](NC(=O)[C@H](CC(C)C)NC(=O)[C@@H](N)CCCCN)[C@@H](C)CC)[C@@H](C)CC)[C@@H](C)O)C(=O)O [NCP-0, K LIPIA SKT CPA GKN LCY KI] (H-KLIPIASKTCPAGKNLCYKI-OH; N-terminus and C-terminus assumed)
- Cytotoxicity: cell number percentage reduction in comparison with control ([1]; peptide 12.5 µg/ml): 4%
- Cytotoxicity: cell number percentage reduction in comparison with control ([1]; peptide 100 µg/ml): 6%
- antimicrobial activity [2]: scarcely active
